Test results as given in patent US11098043B2, “Certain imidazopyridines as cyclic AMP response element binding (CREB) binding protein (CBP) inhibitors and uses thereof” (University of Massachusetts, priority 2017, dated 2021).

What was measured:
CBP bromodomain = molecular target: T1, CBP bromodomain (Homo sapiens, UniProt Q92793); assay: AlphaScreen in vitro binding assay with CBP; settings: for IC50: AlphaScreen, isolated CBP bromodomain, means of at least two determinations; for Selectivity Value [BRD4(1) IC50 (μM)/CBP IC50 (μM)]: ratio BRD4(1) IC50 / CBP IC50
T1 construct: docked complex of Compound 21 with CBP bromodomain
Method: (§1) To determine the binding selectivity of compounds provided, AlphaScreen in vitro binding assays were performed with either CBP or BRD4.
(§2) Assays were performed with minor modifications from the manufacturer's protocol (Perkin Elmer, USA). All reagents were diluted in AlphaScreen™ buffer (50 mM HEPES, 150 mM NaCl, 0.01% v/v Tween-20, 0.1% w/v BSA, pH 7.4). After addition of Alpha beads to master solutions, all subsequent steps were performed under low light conditions. A 2× solution of components with final concentrations of His-BRD4(1) at 20 nM or His-CBP at 50 nM, Ni-coated Acceptor bead at 10 μg/ml, and biotinylated-JQ1 at 10 nM or biotinylated peptide at 100 nM was added in 10 μL to 384-well plates (AlphaPlate-384, PerkinElmer) using an EL406 liquid handler (Biotek, USA). Plates were spun down at 1000 rpm. A 10-point 1: √{square root over (sqrt(10))} serial dilution of compounds in DMSO was prepared at 200× the final concentration. 100 nL of compound from these stock plates were added by pin transfer using a Janus Workstation (PerkinElmer). A 2× solution of streptavidin-coated donor beads with a final concentration of 10 μg/ml was added in a 10 μL volume. The plates were spun down again at 1000 rpm and sealed with foil to prevent light exposure and evaporation. The plates were then incubated at room temperature for 1 hour and read on an Envision 2104 (PerkinElmer) using the manufacturer's protocol. IC50 values were calculated using a 4-parameter logistic curve in Prism 6 (GraphPad Software, USA) after normalization to DMSO-treated negative control wells.

BRD4(1) bromodomain = molecular target: T2, BRD4(1) bromodomain (Homo sapiens, UniProt O60885); assay: AlphaScreen in vitro binding assay with BRD4; settings: isolated BRD4 bromodomain, means of at least two determinations
T2 construct: final concentrations of His-BRD4(1) at 20 nM
Method: as §1
as §2, with “A 2× solution of components with final concentrations of His-BRD4(1) at 20 nM or His-CBP at 50 nM, Ni-coated Acceptor bead at 10 μg/ml, and biotinylated-JQ1 at 10 nM or biotinylated peptide at 100 nM was added in 10 μL to 384-well plates (AlphaPlate-384, PerkinElmer) using an EL406 liquid handler (Biotek, USA).” left out

T1 sequence (Q92793 1085-1192 limits assumed): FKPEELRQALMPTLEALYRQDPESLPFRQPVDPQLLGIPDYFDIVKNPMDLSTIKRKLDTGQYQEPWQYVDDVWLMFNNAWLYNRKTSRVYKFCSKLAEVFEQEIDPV

| SMILES | IC50 (CBP bromodomain) [µM] | Selectivity Value [BRD4(1) IC50 (μM)/CBP IC50 (μM)] (CBP bromodomain) | IC50 (BRD4(1) bromodomain) [µM] |
| --- | --- | --- | --- |
| COc1ccc(CCc2nc3cc(-c4c(C)noc4C)ccn3c2NC(C)(C)CC(C)(C)C)cc1 [Compound 28, 7-(3,5-dimethylisoxazol-4-yl)-2-(4-methoxyphenethyl)-N-(2,4,4-trimethylpentan-2-yl)imidazo[1,2-a]pyridin-3-amine] | 20.9 | >2 |  |
| COc1ccc(-c2nc3cc(-c4c(C)noc4C)ccn3c2NC2CCCCC2)cc1 [Compound 3] | 14.2 | >4 |  |
| Cc1noc(C)c1-c1ccn2c(NC(C)(C)CC(C)(C)C)c(CCc3ccc(OC(C)C)cc3)nc2c1 [Compound 30] |  | 1 |  |
| CCOc1ccc(CCc2nc3cc(-c4c(C)noc4C)ccn3c2NC(C)(C)CC(C)(C)C)cc1 [Compound 29, 7-(3,5-dimethylisoxazol-4-yl)-2-(4-ethoxyphenethyl)-N-(2,4,4-trimethylpentan-2-yl)imidazo[1,2-a]pyridin-3-amine] | 38.5 | >1 | > 50 |
| CN1Cc2cc(-c3ccn4c(NC5CCCCC5)c(CCc5ccccc5)nc4c3)ccc2NC1=O [Compound 10] | 8.12 | <1 | 7.55 |
| Cc1[nH]nc2ccc(-c3ccn4c(NC5CCCCC5)c(CCc5ccccc5)nc4c3)cc12 [Compound 11] | 8.02 | <1 | 0.51 |
| Cc1noc(C)c1-c1ccn2c(NCC(=O)OC(C)(C)C)c(CCc3ccccc3)nc2c1 [Compound 4] | 7.83 | >6 |  |
| COc1ccc(CCc2nc3cc(-c4c(C)noc4C)ccn3c2NC2CCCCC2)cc1Cl [Compound 21, 2-(3-chloro-4-methoxyphenethyl)-N-cyclohexyl-7-(3,5-dimethylisoxazol-4-yl)imidazo[1,2-a]pyridin-3-amine] |  |  | 5.19 |
| COc1ccc(-c2nc3cc(C)cc(C)n3c2NC(C)(C)CC(C)(C)C)cc1 [Compound 8, 2-(4-methoxyphenyl)-5,7-dimethyl-N-(2,4,4-trimethylpentan-2-yl)imidazo[1,2-a]pyridin-3-amine] | 16.3 | >3 |  |
| COc1ccc(Cc2nc3cc(-c4c(C)noc4C)ccn3c2NC2CCCCC2)cc1 [Compound 26] | 6.07 | 2 | 11.2 |
| Cc1sc2c(c1C)C(c1ccc(Cl)cc1)=N[C@@H](CC(=O)OC(C)(C)C)c1nnc(C)n1-2 [JQ1, reference compound] | > 50 |  |  |
| CCOc1ccc(CCc2nc3cc(-c4c(C)noc4C)ccn3c2NC(C)(C)CC(C)(C)C)cc1Cl [Compound 32] | 20.5 | >2 |  |
| COc1ccc(CCCc2nc3cc(-c4c(C)noc4C)ccn3c2NC2CCCCC2)cc1 [Compound 27, N-cyclohexyl-7-(3,5-dimethylisoxazol-4-yl)-2-(3-(4-methoxyphenyl)propyl)imidazo[1,2-a]pyridin-3-amine] | 4.95 | 3 | 12.3 |
| Cc1noc2ccc(-c3ccn4c(NC5CCCCC5)c(CCc5ccccc5)nc4c3)cc12 [Compound 12] | > 50 | <1 | 3.03 |
| COc1ccc(CCCc2nc3cc(-c4c(C)noc4C)ccn3c2NC(C)(C)CC(C)(C)C)cc1 [Compound 35] |  | 1 |  |
| COc1ccc(-c2nc3cc(C)cc(C)n3c2NC23CC4CC(CC(C4)C2)C3)cc1 [Compound 1, N-((3s,5s,7s)-adamantan-1-yl)-2-(4-methoxyphenyl)-5,7-dimethylimidazo[1,2-a]pyridin-3-amine] | 16.1 | >3 |  |

Further compounds by falling IC50 (CBP bromodomain), results first:

| IC50 (CBP bromodomain) [µM] | Selectivity Value [BRD4(1) IC50 (μM)/CBP IC50 (μM)] (CBP bromodomain) | IC50 (BRD4(1) bromodomain) [µM] | SMILES |
| --- | --- | --- | --- |
| 3.52 | 6 | 22.6 | COc1ccc(CCc2nc3cc(-c4c(C)noc4C)ccn3c2NC(C)C)cc1OC [Compound 34] |
| 2.54 | 20 |  | CCOc1ccc(CCc2nc3cc(-c4c(C)noc4C)ccn3c2NC2CCCCC2)cc1Cl [Compound 31] |
| 2.34 | >21 |  | COc1ccc(CCc2nc3cc(-c4c(C)noc4C)ccn3c2NC(C)(C)C)cc1 [Compound 20] |
| 2.22 | >23 |  | COc1ccc(-c2nc3cc(-c4c(C)noc4C)ccn3c2NC23CC4CC(CC(C4)C2)C3)cc1 [Compound 2] |
| 1.92 | 4 | 8.47 | COc1ccc(CCc2nc3cc(-c4c(C)noc4C)ccn3c2NCc2ccccc2)cc1 [Compound 24] |
| 1.88 | 1 | 2.77 | Cc1noc(C)c1-c1ccn2c(NC(C)(C)CC(C)(C)C)c(CCc3ccccc3)nc2c1 [Compound 13, 7-(3,5-dimethylisoxazol-4-yl)-2-phenethyl-N-(2,4,4-trimethylpentan-2-yl)imidazo[1,2-a]pyridin-3-amine] |
| 1.61 | 5 | 7.95 | COc1ccc(CCc2nc3cc(-c4c(C)noc4C)ccn3c2Nc2ccc(Cl)cc2)cc1 [Compound 25] |
| 1.57 | 7 | 11 | COc1ccc(CCc2nc3cc(-c4c(C)noc4C)ccn3c2N[C@H](C)c2ccccc2)cc1 [Compound 37] |
| 1.55 | 3 | 4.22 | COc1ccc(CCc2nc3cc(-c4c(C)noc4C)ccn3c2NCC(=O)OC(C)(C)C)cc1 [Compound 15] |
| 1.17 | 3 | 2.96 | COc1ccc(-c2nc3cc(-c4c(C)noc4C)ccn3c2NCC(=O)OC(C)(C)C)cc1 [Compound 7] |
| 0.956 | 6 | 5.64 | Cc1noc(C)c1-c1ccn2c(NC(C)(C)C)c(CCc3ccccc3)nc2c1 [Compound 14, N-(tert-butyl)-7-(3,5-dimethylisoxazol-4-yl)-2-phenethylimidazo[1,2-a]pyridin-3-amine] |
| 0.923 | 8 | 7.11 | COc1ccc(CCc2nc3cc(-c4c(C)noc4C)ccn3c2NC23CC4CC(CC(C4)C2)C3)cc1 [Compound 16, N-((3s,5s,7s)-adamantan-1-yl)-7-(3,5-dimethylisoxazol-4-yl)-2-(4-methoxyphenethyl)imidazo[1,2-a]pyridine-3-amine] |
| 0.759 | 8 | 6.22 | COc1ccc(CCc2nc3cc(-c4c(C)noc4C)ccn3c2NC2CCCCC2)cc1OC [Compound 33] |
| 0.737 | 11 | 8.18 | Cc1noc(C)c1-c1ccn2c(NC3CCCCC3)c(CCc3ccc(OC(C)C)cc3)nc2c1 [Compound 36] |
| 0.718 | 10 | 7.43 | Cc1noc(C)c1-c1ccn2c(NC3CCCCC3)c(CCc3ccccc3)nc2c1 [Compound 5, N-cyclohexyl-7-(3,5-dimethylisoxazol-4-yl)-2-phenethylimidazo[1,2-a]pyridin-3-amine] |
| 0.633 | 28 | 17.9 | CCCOc1ccc(CCc2nc3cc(-c4c(C)noc4C)ccn3c2NC2CCCCC2)cc1 [Compound 23] |
| 0.507 | 7 | 3.38 | Cc1noc(C)c1-c1ccn2c(NC34CC5CC(CC(C5)C3)C4)c(CCc3ccccc3)nc2c1 [Compound 6] |
| 0.464 | 7 | 3.42 | COc1ccc(CCc2nc3cc(-c4c(C)noc4C)ccn3c2NCCN2CCOCC2)cc1 [Compound 17] |
| 0.214 | 30 | 6.48 | CCOc1ccc(CCc2nc3cc(-c4c(C)noc4C)ccn3c2NC2CCCCC2)cc1 [Compound 22, N-cyclohexyl-7-(3,5-dimethylisoxazol-4-yl)-2-(4-ethoxyphenethyl)imidazo[1,2-a]pyridin-3-amine] |
